Assay results from the supplement of paper PMC10307832.

Compound: CCc1cnn2c(NCc3ccc[n+]([O-])c3)cc(N3CCCC[C@H]3CCO)nc12 [Dinaciclib] + CCNC(=O)c1noc(-c2cc(C(C)C)c(O)cc2O)c1-c1ccc(CN2CCOCC2)cc1 [Luminespib] (partner 0.01 µM)
Assay: relative viability (nuclei count vs DMSO), 5 days (fraction); higher = more cells survive
Procedure, shortened: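 One day after seeding in 1536-well plates, lung cancer cell lines were dosed by pin tool. Dosing was either single-drug or a fixed anchor-drug dose plus five library-drug doses (not always all listed) in √10 steps. After 5 days, nuclei were stained in one fix-and-stain step and counted on 4× images, and relative viability is the nuclei count of treated wells over that of vehicle wells, given as the median of duplicate plates.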

Row | Cell Line | relative viability (first compound 0.009487 µM) | relative viability (first compound 0.03 µM) | relative viability (first compound 0.09487 µM) | relative viability (first compound 0.3 µM)
1 | LXF-289 | 0.642 | 0.106 | 0.068 | 0.0731
2 | BEN | 0.323 | 0.221 | 0.174 | 0.133
3 | NCI-H2023 | 0.561 | 0.058 | 0.055 | 0.0469
4 | NCI-H661 | 0.906 | 0.195 | 0.169 | 0.148
5 | NCI-H1355 | 0.703 | 0.246 | 0.135 | 0.195
6 | NCI-H1793 | 0.218 | 0.107 | 0.144 | 0.12
7 | COR-L 105 | 0.509 | 0.214 | 0.229 | 0.169
8 | NCI-H2228 | 0.147 | 0.127 | 0.116 | 0.0939
9 | NCI-H838 | 0.295 | 0.134 | 0.104 | 0.0905
10 | EMC-BAC-2 | 1.15 | 0.382 | 0.145 | 0.16
11 | LU99A | 0.177 | 0.149 | 0.12 | 0.124
12 | PC-3 [JPC-3] | 0.668 | 0.417 | 0.219 | 0.199
13 | NCI-H596 | 0.564 | 0.566 | 0.174 | 0.186
14 | LCLC-97TM1 | 0.459 | 0.111 | 0.116 | 0.109
15 | NCI-H1993 | 0.723 | 0.472 | 0.53 | 0.474
16 | HARA | 0.367 | 0.0789 | 0.0403 | 0.0571
17 | NCI-H460 | 0.031 | 0.015 | 0.0141 | 0.0129

Row | Cell Line | relative viability (first compound 0.009487 µM) | relative viability (first compound 0.03 µM) | relative viability (first compound 0.09487 µM) | relative viability (first compound 0.3 µM)
18 | NCI-H1650 | 0.226 | 0.204 | 0.158 | 0.172
19 | EKVX | 0.858 | 0.705 | 0.137 | 0.101
20 | NCI-H1755 | 0.395 | 0.624 | 0.147 | 0.14
21 | NCI-H1395 | 0.631 | 0.31 | 0.244 | 0.238
22 | NCI-H1792 | 0.422 | 0.225 | 0.117 | 0.0889
23 | NCI-H2087 | 0.189 | 0.107 | 0.0516 | 0.0567
24 | H3255 | 0.813 | 0.72 | 0.204 | 0.18
25 | SK-MES-1 | 0.428 | 0.131 | 0.167 | 0.152
26 | NCI-H23 | 0.197 | 0.172 | 0.168 | 0.148
27 | HCC-827 | 0.805 | 0.108 | 0.103 | 0.107
28 | UMC-11 | 0.271 | 0.177 | 0.158 | 0.174
29 | NCI-H1975 | 0.237 | 0.145 | 0.12 | 0.135
30 | NCI-H1563 | 0.526 | 0.272 | 0.177 | 0.128
31 | COR-L23 | 0.226 | 0.0887 | 0.0655 | 0.0681
32 | CAL-12T | 0.133 | 0.085 | 0.0815 | 0.0961
33 | SW 1573 | 0.126 | 0.0666 | 0.0548 | 0.0868
34 | NCI-H2126 | 0.873 | 0.202 | 0.201 | 0.21
